Test results: ChEMBL document CHEMBL4118122, “Identification and biological evaluation of thiazole-based inverse agonists of RORγt” (Bioorg Med Chem Lett, 2018)

Assays:
[1] = target: T1, Adrenergic receptor alpha-1 (Rattus norvegicus) (UniProt P15823+P23944+P43140); assay: Displacement of [3H]-prazosin from rat alpha1 adrenoceptor at 10 uM after 60 mins by scintillation counting analysis relative to control; assay type: protein assay
[2] = target: C-X-C chemokine receptor type 2 (Homo sapiens) (UniProt P25025); assay: Displacement of [125I]IL-8 from human recombinant CXCR2 receptor at 10 uM after 60 mins by scintillation counting analysis relative to control
[3] = target: Delta-type opioid receptor (Homo sapiens, UniProt P41143); assay: Displacement of [3H]DADLE from human recombinant delta opioid receptor at 10 uM after 60 mins by scintillation counting analysis relative to control
[4] = target: 5-hydroxytryptamine receptor 3A (Homo sapiens) (UniProt P46098); assay: Displacement of [3H]BRL 43694 from human recombinant 5-HT3 receptor at 10 uM after 120 mins by scintillation counting analysis relative to control
[5] = target: Sodium-dependent dopamine transporter (Homo sapiens) (UniProt Q01959); assay: Displacement of [3H][…] from recombinant human Dopamine transporter at 10 uM after 120 mins by scintillation counting analysis relative to control
[6] = target: T1, Adrenergic receptor alpha-1 (Rattus norvegicus); assay: Displacement of [3H]-prazosin from rat alpha1 adrenoceptor at 1 uM after 60 mins by scintillation counting analysis relative to control; assay type: protein assay
[7] = target: Adrenergic receptor alpha-2 (Rattus norvegicus) (UniProt P22086+P19328+P22909); assay: Displacement of [3H]-RX 821002 from rat alpha2 adrenoceptor at 1 uM after 60 mins by scintillation counting analysis relative to control; assay type: protein assay
[8] = target: Type-1 angiotensin II receptor (Homo sapiens) (UniProt P30556); assay: Displacement of [125I][Sar1,Ile8]-AT-II from human recombinant AT1 receptor at 1 uM after 120 mins by scintillation counting analysis relative to control
Chain of Type-1 angiotensin II receptor (Homo sapiens) (P30556 whole entry): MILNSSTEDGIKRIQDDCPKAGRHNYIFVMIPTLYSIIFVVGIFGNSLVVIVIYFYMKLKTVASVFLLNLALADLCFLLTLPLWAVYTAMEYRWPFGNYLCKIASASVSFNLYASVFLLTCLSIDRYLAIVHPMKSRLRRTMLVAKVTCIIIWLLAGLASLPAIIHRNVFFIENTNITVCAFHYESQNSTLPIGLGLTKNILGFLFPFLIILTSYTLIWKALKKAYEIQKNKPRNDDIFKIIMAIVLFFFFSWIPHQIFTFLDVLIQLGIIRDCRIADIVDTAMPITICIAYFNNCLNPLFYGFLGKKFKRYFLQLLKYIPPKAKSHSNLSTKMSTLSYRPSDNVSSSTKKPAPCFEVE

[9] = target: Cholecystokinin receptor type A (Homo sapiens) (UniProt P32238); assay: Displacement of [125I]CCK-8s from human recombinant CCK1 receptor at 1 uM after 60 mins by scintillation counting analysis relative to control
Melanocortin receptor 4 = Melanocortin receptor 4 (Homo sapiens, UniProt P32245); assay: Displacement of [125I]NDP-alpha-MSH from human recombinant MC4 receptor at 1 uM after 120 mins by scintillation counting analysis relative to control
[10] = target: Muscarinic acetylcholine receptor M2 (Homo sapiens) (UniProt P08172); assay: Displacement of [3H]AF-DX 384 from human recombinant M2 receptor at 1 uM after 60 mins by scintillation counting analysis relative to control
Chain of Muscarinic acetylcholine receptor M2 (Homo sapiens) (P08172 whole entry): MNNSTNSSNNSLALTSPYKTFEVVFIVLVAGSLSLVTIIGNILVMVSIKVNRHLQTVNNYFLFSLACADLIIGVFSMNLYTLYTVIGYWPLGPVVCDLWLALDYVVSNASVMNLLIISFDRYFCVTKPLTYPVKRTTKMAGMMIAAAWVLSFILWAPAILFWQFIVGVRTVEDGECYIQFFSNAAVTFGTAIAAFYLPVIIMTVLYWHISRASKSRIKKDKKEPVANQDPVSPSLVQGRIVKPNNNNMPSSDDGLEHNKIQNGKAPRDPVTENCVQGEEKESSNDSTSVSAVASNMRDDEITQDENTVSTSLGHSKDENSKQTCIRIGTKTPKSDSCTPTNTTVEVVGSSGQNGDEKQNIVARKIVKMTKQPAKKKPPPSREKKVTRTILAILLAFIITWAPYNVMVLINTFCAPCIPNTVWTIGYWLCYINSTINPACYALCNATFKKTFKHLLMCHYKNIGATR

Mu-type opioid receptor = Mu-type opioid receptor (Homo sapiens, UniProt P35372); assay: Displacement of [3H]DAMGO from human recombinant mu receptor at 1 uM after 120 mins by scintillation counting analysis relative to control
Nociceptin receptor = Nociceptin receptor (Homo sapiens, UniProt P41146); assay: Displacement of [3H]nociceptin from human recombinant NOP receptor at 1 uM after 60 mins by scintillation counting analysis relative to control
Chain of Nociceptin receptor (P41146 whole entry): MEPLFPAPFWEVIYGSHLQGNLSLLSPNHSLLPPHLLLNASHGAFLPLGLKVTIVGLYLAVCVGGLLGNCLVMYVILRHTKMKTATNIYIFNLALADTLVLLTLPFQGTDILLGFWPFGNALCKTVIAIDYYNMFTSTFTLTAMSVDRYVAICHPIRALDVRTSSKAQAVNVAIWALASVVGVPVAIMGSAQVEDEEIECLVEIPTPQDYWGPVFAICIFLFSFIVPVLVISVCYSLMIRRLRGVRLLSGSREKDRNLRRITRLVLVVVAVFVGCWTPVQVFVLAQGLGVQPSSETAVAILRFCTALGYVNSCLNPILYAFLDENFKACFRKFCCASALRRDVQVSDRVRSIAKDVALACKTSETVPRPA

[11] = target: Sodium-dependent noradrenaline transporter (Homo sapiens, UniProt P23975); assay: Displacement of [3H]nisoxetine from recombinant human norepinephrine transporter at 1 uM after 120 mins by scintillation counting analysis relative to control
D(1A) dopamine receptor = D(1A) dopamine receptor (Homo sapiens, UniProt P21728); assay: Displacement of [3H]-SCH 23390 from human recombinant dopamine D1 receptor after 60 mins by scintillation counting analysis
Chain of D(1A) dopamine receptor (P21728 whole entry): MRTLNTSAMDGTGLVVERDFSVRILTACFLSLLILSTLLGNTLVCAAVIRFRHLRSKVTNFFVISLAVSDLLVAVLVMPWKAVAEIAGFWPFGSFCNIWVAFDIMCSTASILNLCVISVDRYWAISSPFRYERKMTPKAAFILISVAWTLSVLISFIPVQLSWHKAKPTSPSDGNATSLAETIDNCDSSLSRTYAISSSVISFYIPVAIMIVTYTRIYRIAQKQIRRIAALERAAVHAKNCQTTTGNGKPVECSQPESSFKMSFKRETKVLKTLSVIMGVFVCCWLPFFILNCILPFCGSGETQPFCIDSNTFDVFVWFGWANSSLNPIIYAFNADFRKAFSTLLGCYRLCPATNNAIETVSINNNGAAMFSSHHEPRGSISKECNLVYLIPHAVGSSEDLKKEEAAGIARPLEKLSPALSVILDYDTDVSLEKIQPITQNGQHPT

[12] = target: C-C chemokine receptor type 1 (Homo sapiens, UniProt P32246); assay: Displacement of [125I]MIP-1alpha from human recombinant CCR1 receptor after 120 mins by scintillation counting analysis
Chain of C-C chemokine receptor type 1 (P32246 whole entry): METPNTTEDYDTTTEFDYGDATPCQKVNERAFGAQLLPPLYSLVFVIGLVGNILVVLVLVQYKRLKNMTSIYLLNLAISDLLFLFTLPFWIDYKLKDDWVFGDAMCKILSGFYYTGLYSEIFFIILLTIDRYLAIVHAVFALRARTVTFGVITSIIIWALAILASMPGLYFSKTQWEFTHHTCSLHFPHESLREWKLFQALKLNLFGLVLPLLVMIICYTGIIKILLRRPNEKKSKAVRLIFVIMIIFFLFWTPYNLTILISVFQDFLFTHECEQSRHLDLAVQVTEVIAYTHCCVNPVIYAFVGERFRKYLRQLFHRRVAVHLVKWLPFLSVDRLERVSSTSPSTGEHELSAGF

Histamine H2 receptor = Histamine H2 receptor (Homo sapiens, UniProt P25021); assay: Displacement of [125I]APT from human recombinant histamine H2 receptor after 120 mins by scintillation counting analysis
[13] = target: Neurotensin receptor type 1 (Homo sapiens, UniProt P30989); assay: Displacement of [125I]Tyr3-neurotensin from human recombinant NTS1 receptor after 120 mins by scintillation counting analysis
Chain of Neurotensin receptor type 1 (P30989 whole entry): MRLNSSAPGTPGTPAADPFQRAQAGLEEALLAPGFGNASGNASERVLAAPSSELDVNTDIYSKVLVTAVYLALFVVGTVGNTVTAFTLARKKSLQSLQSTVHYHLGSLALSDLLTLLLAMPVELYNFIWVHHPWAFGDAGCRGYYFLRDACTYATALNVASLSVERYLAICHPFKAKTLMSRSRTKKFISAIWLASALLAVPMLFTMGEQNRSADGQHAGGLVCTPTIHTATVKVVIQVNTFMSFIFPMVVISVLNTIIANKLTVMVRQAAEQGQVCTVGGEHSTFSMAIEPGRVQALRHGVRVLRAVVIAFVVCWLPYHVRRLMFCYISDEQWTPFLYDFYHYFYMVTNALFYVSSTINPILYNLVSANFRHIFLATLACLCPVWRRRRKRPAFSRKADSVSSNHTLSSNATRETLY

[14] = target: 5-hydroxytryptamine receptor 2A (Homo sapiens, UniProt P28223); assay: Displacement of [3H]ketanserin human recombinant 5-HT2A receptor after 60 mins by scintillation counting analysis
Chain of 5-hydroxytryptamine receptor 2A (P28223 whole entry): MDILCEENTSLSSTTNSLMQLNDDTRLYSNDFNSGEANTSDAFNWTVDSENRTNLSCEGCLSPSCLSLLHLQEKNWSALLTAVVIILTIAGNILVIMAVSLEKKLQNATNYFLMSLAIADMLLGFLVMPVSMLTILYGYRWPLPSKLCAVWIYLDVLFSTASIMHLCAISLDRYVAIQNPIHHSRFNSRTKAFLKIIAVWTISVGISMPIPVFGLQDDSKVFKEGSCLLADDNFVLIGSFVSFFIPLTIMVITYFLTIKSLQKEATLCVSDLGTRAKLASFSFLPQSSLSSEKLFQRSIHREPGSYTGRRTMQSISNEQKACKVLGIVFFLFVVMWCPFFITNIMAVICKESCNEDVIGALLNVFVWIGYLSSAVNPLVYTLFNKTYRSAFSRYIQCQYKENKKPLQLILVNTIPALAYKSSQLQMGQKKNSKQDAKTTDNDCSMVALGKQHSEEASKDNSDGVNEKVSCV

[15] = target: 5-hydroxytryptamine receptor 5A (Homo sapiens, UniProt P47898); assay: Displacement of [3H]LSD from human recombinant 5-HT5a receptor after 120 mins by scintillation counting analysis
Chain of 5-hydroxytryptamine receptor 5A (P47898 whole entry): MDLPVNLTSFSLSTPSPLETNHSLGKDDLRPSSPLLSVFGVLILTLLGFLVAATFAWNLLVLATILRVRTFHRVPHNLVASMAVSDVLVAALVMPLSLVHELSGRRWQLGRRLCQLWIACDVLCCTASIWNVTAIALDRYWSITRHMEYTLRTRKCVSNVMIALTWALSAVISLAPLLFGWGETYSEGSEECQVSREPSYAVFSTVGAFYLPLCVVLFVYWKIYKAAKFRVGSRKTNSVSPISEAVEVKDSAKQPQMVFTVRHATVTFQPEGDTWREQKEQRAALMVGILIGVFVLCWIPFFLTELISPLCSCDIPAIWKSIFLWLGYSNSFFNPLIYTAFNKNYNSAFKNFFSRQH

Somatostatin receptor = assay: Displacement of [125I]Tyr11-somatostatin-14 from mouse SST receptor after 60 mins by scintillation counting analysis; assay type: protein assay
[16] = Displacement of [3H]batrachotoxinin from rat brain voltage gated sodium ion channel site 2 after 60 mins by scintillation counting analysis
[17] = target: Calcium/calmodulin-dependent protein kinase type 1D (Homo sapiens) (UniProt Q8IU85); assay: Inhibition of CaMK1delta (unknown origin) at 10 uM in presence of ATP relative to control
[18] = target: G protein-coupled receptor kinase 4 (Homo sapiens) (UniProt P32298); assay: Inhibition of recombinant human full length GST-tagged GRK4 expressed in baculovirus expression system at 10 uM in presence of ATP relative to control
Chain of G protein-coupled receptor kinase 4 (Homo sapiens) (P32298 whole entry, looked up, the tested form may be a part): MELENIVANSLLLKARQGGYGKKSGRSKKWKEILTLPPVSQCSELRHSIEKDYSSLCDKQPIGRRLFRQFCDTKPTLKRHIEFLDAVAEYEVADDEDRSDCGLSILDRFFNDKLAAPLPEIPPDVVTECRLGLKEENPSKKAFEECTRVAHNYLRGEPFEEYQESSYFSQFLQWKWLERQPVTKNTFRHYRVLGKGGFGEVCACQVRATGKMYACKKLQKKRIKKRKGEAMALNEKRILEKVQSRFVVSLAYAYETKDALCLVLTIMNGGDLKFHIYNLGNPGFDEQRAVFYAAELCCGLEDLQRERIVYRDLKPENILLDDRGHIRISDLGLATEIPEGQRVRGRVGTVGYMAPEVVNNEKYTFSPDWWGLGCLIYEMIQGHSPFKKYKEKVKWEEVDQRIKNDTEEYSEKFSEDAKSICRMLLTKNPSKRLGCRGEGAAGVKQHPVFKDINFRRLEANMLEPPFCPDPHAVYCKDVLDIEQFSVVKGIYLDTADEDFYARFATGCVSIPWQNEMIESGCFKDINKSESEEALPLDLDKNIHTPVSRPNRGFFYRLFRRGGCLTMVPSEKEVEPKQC

[19] = target: Insulin-like growth factor 1 receptor (Homo sapiens) (UniProt P08069); assay: Inhibition of recombinant His-tagged human IGF1R cytoplasmic domain (960 to […] residues) expressed in baculovirus expression system at 10 uM in presence of ATP relative to control
[20] = target: Platelet-derived growth factor receptor beta (Homo sapiens) (UniProt P09619); assay: Inhibition of recombinant His-tagged human PDGFRbeta (558 to 1106 residues) cytoplasmic domain expressed in baculovirus expression system at 10 uM in presence of ATP relative to control
[21] = target: Serine/threonine-protein kinase PLK1 (Homo sapiens) (UniProt P53350); assay: Inhibition of full length recombinant His-tagged human PLK1 expressed in baculovirus expression system at 10 uM in presence of ATP relative to control
Chain of Serine/threonine-protein kinase PLK1 (Homo sapiens) (P53350 whole entry, the tested form may be a part): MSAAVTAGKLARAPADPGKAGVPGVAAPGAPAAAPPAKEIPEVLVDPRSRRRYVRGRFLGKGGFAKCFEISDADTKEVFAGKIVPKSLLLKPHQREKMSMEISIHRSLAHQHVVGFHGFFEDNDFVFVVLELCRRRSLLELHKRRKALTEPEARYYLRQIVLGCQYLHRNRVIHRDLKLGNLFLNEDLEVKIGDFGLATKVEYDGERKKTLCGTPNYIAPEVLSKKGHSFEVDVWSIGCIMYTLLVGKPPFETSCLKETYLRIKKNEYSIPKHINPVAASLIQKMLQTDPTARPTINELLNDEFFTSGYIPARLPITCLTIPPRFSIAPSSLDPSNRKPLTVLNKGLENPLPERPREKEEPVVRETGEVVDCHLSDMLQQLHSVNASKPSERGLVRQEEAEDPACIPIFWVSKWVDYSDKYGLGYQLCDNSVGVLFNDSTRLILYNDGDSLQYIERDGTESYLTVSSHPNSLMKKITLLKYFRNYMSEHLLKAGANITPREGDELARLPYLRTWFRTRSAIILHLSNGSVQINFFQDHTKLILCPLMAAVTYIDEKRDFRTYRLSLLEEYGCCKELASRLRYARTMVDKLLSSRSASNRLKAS

[22] = target: Serine/threonine-protein kinase PLK3 (Homo sapiens) (UniProt Q9H4B4); assay: Inhibition of GST-tagged human PLK3 catalytic domain expressed in baculovirus expression system at 10 uM in presence of ATP relative to control
[23] = target: Protein kinase C alpha type (Homo sapiens) (UniProt P17252); assay: Inhibition of recombinant full length human PKCalpha expressed in baculovirus expression system at 10 uM in presence of ATP relative to control
[24] = Half life in human microsomes; assay type: ADME, Microsome
Cytochrome P450 2C9 = Cytochrome P450 2C9 (Homo sapiens, UniProt P11712); assay: Inhibition of CYP2C9 (unknown origin); assay type: ADME
Cytochrome P450 3A4 = Cytochrome P450 3A4 (Homo sapiens, UniProt P08684); assay: Inhibition of CYP3A4 (unknown origin); assay type: ADME
Chain of Cytochrome P450 3A4 (P08684 whole entry): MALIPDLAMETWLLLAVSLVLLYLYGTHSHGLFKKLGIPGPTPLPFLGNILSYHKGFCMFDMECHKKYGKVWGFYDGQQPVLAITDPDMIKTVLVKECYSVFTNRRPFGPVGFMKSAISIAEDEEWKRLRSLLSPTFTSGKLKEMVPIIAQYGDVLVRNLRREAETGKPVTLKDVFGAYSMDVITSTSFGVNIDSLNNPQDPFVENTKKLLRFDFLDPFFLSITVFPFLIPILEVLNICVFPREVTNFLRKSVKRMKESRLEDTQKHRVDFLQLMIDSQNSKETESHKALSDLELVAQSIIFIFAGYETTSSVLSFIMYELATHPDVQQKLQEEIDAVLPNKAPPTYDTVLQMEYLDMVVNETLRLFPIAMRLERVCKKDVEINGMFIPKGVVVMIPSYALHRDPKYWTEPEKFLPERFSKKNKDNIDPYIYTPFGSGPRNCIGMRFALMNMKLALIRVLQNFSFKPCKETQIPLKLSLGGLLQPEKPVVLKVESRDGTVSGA

[25] = Oral bioavailability in Sprague-Dawley rat at 5 mg/kg; assay type: ADME, organism-based; conditions: in vivo
[26] = target: Proto-oncogene tyrosine-protein kinase Src (Homo sapiens) (UniProt P12931); assay: Inhibition of recombinant full length C-terminal His-tagged human Src cytoplasmic domain expressed in baculovirus expression system at 10 uM in presence of ATP relative to control

Which results are given for `CC(C)(C)NS(=O)(=O)c1ccc(-c2sc(C(=O)N[C@H]3C[C@H](C(=O)O)C3)nc2CC2CCCCC2)c2ccccc12`?
inhibition [1]: < 10%; inhibition [2]: 24%; inhibition [3]: 22%; inhibition [4]: 12%; inhibition [5]: 47%; inhibition [6]: < 10%; inhibition [7]: < 10%; inhibition [8]: < 10%; inhibition [9]: < 10%; inhibition (Melanocortin receptor 4): < 10%; inhibition [10]: < 10%; inhibition (Mu-type opioid receptor): < 10%; inhibition (Nociceptin receptor): < 10%; inhibition [11]: < 10%; IC50 (D(1A) dopamine receptor): 0.21 nM; IC50 [12]: 0.081 nM; IC50 (Histamine H2 receptor): 142 nM; IC50 [13]: 0.25 nM; IC50 [14]: 0.64 nM; IC50 [15]: 106 nM; IC50 (Somatostatin receptor): 0.31 nM; IC50 [16]: 6420 nM; inhibition [17]: 11%; inhibition [18]: -3%; inhibition [19]: -10%; inhibition [20]: -4%; inhibition [21]: -6%; inhibition [22]: -5%; inhibition [23]: -1%; half-life [24]: 1.25 h; INH (Cytochrome P450 2C9): 9.9 µM; INH (Cytochrome P450 3A4): > 10 µM; bioavailability [25]: 20%; inhibition [26]: -4%
